The record followed here is patent publication US9359373B1, “Lipophilic N-substituted norcantharimide derivatives and uses thereof” (priority 2014, dated 2016).

Each structure is given as a SMILES string. Read-outs that look alike come from different tables or passages of the source.

In one data set the test system is HT29. The data set can be described thus: MTT cell viability, HT29. In kind it is cell-based, human. Particulars: Homo sapiens, HT-29, 48 hours, Mean ± SD, read-out: Growth Inhibition IC50 HT-29. As to the method: (§1) Cell lines used in the present disclosure include human liver carcinonoma cell line HepG2, human bladder carcinoma cell line BFTC905, human colon carcinoma cell lines HT29 and SW480, and human leukemia cell lines HL60 and Jurkat T, and mouse lymphocytic leukemia cell line L1210. Each cell lines were cultured and maintained in Dulbecco's modified Eagle media (DMEM) or RPMI 1640 medium supplemented with 10% heat inactivated fetal bovine serum (FBS), 1% penicillin/streptomycin, in 5% CO2195% air at 37° C.
(§2) The absorbance of the solution at 540 nm was measured by spectrophotometer. The IC50 values were defined as the drug concentration that inhibit 50% cell growth by setting the viability of untreated cells as 100%. Values were represented as the mean±SD from at least 3 independent experiments.
(§3) Effects of the compounds of formula (I) of this disclosure, specifically, NOC15 and NC 15, on HepG2 cells (liver carcinoma), BFTC905 (bladder carcinoma), HT29 (colon carcinoma), SW480 (colon carcinoma) and HL60 (leukemia) were assessed by cell viability analysis in accordance with procedures described above, in which compound 2, and other known anti-cancer agents including 5-FU, cisplatin and doxorubicin were respectively used as positive controls.

A further data set relates to L1210 cells. The data set is described as follows: Syngeneic L1210 tumor in vivo therapy. Details: species or system DBA/2 mice. Here is the method:
The DBA/2 mice (about 7 weeks old, 18-22 g) were obtained from BioLASCO Taiwan Co., Ltd. All mice were housed in specific pathogen-free condition with ad libitum access to water and laboratory chow. A solution of L1210 cells was injected into the subcutaneous tissue to establish a syngeneic tumor. Alternatively, the L1210 cells was injected peritoneally. All animal experiments were performed in accordance with the guidelines of the Animal Welfare Committee of Taipei Veterans General Hospital (Taiwan, R.O.C.).
To inoculate tumor, L1210 cells (1×10^6 cells per injection) were injected either subcutaneously or intraperitoneally to lab animals to generate tumors on day 1. After 7 days, NOC15 or NC15 (diluted in normal saline) was administered intra-peritoneally at a dose of 18 mg/kg every day for 7 days. The average body weight (BW) of the animals was measured daily.
After treatment, mice were sacrificed, and their tumors, livers and spleens were harvested and weighted, respectively; and white blood cells (WBC) counts were also measured.
Mice were inoculated with L1210 tumor cells in accordance with the procedures described in the section of “Materials and Methods.” For in vivo therapy, animals were given 18 mg/Kg NOC15 or NC15 by intra-peritoneal route, for a period of at least 7 days. Tumor size, animal body weight, respective weights of liver and spleen, as well as the white blood cell count of each animal were then measured respectively at the indicated time. Results are depicted in FIGS. 8 to 11, respectively.

For a further data set, the system named is HepG2 cells. The data set is described as follows: MTT cell viability, HepG2. The class given is cell-based, human. To be noted: Homo sapiens, Mean ± SD. As to the method: as §1, §2, §3
In this example, effects of NOC15 or NC15 on HepG2 cells were assessed by cell viability analysis in accordance with procedures described above, in which compound 2 was used as a positive control.

A further data set deals with BFTC905. The data set is described as follows: MTT cell viability, BFTC905. The class given is cell-based, human. Particulars: Homo sapiens, BFTC-905, 48 hours, Mean ± SD, read-out: Growth Inhibition IC50 BFTC905. Here is the method:
as §1, §2, §3

For data set [1], the system named is human lymphoblast cells (NHL). The data set can be described thus: Cell viability (CCK-8), normal lymphoblast cells. The class given is cell-based. To be noted: 24 hours (NC15: 24 and 48 hours), FIG. 4, FIG. 6. As to the method: The cell viability assays were performed in 96-well plates. The 100 μl of cell suspensions (NHL or Jurkat T cells, 5×10^3 cells/well, serum-free medium) were inoculated in the wells and the plates were pre-incubated in the incubator for 24 hours (pre-incubated for 22 hours and stimulated with PMA 5 ng/ml plus ionomycin 250 ng/ml for 2 hours in PMAI-treated groups). Then, various concentrations of norcantharidin (0, 2, 4, 15, 30 and 60 μM) or NOC15 (0, 0.25, 0.5, 1, 2 and 4 μM) were added into the culture media in the wells. After 24 hours of incubation, the cell viability of NHL and Jurkat T cells was measured by cell counting kit-8 (CCK-8, Sigma). The half maximal inhibitory concentrations (IC50) of norcantharidin and NOC15 on Jurkat T cells and NHL cells were calculated.
In this example, a model of phorbol 12-myristate 13-acetate plus ionomycin (PMAI) activated leukemia Jurkat T cells model was employed to investigate the effects of the NOC15 on human leukemia cells (Jurkat T cells) and human lymphoblast cells (NHL).

One may read the IC50 as the concentration that inhibits the measured activity by half. `CC(C)=CCCC(C)=CCCC(C)=CCN1C(=O)C2C3CCC(O3)C2C1=O` (stereo not drawn) [Compound 18, N-farnesyl-7-oxabicyclo[2.2.1]heptane-2,3-dicarboximide]: the IC50 with HT29 was 14.8 ± 1.9 µM; in the data set with HepG2 cells (HepG2, 24 h, read-out: Growth Inhibition On Hepatic Cancer Cells IC50 24 hrs), 19.4 ± 2.1 µM; in the data set on HepG2 cells (HepG2, 48 h, MTT, 48 hours, read-out: Growth Inhibition IC50 HepG2), 16.4 ± 1.2 µM; with HepG2 cells (HepG2, 48 h, read-out: Growth Inhibition On Hepatic Cancer Cells IC50 48 hrs), 16.4 ± 1.2 µM; in the data set with HepG2 cells (HepG2, 72 h, read-out: Growth Inhibition On Hepatic Cancer Cells IC50 72 hrs) it was 12.8 ± 2.5 µM; in the data set with BFTC905, 9.3 ± 0.6 µM. Also, the weight of liver result in the data set with L1210 cells (IP-inoculated tumor, 18 mg/kg i.p., FIG. 9B) was “improved significantly”. Besides, the weight of spleen result in the data set on L1210 cells (IP-inoculated tumor, 18 mg/kg i.p., FIG. 9C) is on record as “improved significantly”. Also, the “increase in life span” value in the data set on L1210 cells (SC-inoculated tumors, 18 mg/kg i.p. daily, FIG. 8A) is listed as “about 40%”. Besides, the “weight of s.c. tumor” value in the data set with L1210 cells (SC-inoculated, 18 mg/kg i.p., FIG. 9A) is reported as “Significant reduction”. Also, in the data set on L1210 cells (day 14, SC- or IP-injected L1210, 18 mg/kg i.p., FIG. 10), the “white blood cell (WBC) counts” value was “significant reductions”. Besides, the “cytotoxicity to normal lymphatic/lymphoblast cells (NHL)” value in data set [1] is listed as “did not possess significant cytotoxicity”.
